According to PubChem BioAssay (NCI):
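At the GI50, growth is halved. TGI denotes the concentration required for complete inhibition of growth.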

Experiments:
Assay in all cases: NCI tumour cell line growth inhibition, 384-well format
[1] = test system: EKVX NSCLC
[2] = test system: A549 NSCLC
[3] = test system: NCI-H522 lung
[4] = test system: NCI-H23 lung
[5] = test system: UO-31 renal
[6] = test system: HS 578T breast
[7] = test system: SK-OV-3 ovarian
[8] = test system: NCI/ADR-RES ovarian
[9] = test system: SR leukemia
[10] = test system: RPMI-8226 leukemia
[11] = test system: SW-620 colon
[12] = test system: SF-539 CNS
[13] = test system: MALME-3M melanoma
[14] = test system: SK-MEL-2 melanoma
[15] = test system: MDA-MB-231 breast
[16] = test system: DU-145 prostate
[17] = test system: OVCAR-3 ovarian
[18] = test system: TK-10 renal
[19] = test system: HCT-15 colon
[20] = test system: U251 glioblastoma
[21] = test system: SK-MEL-5 melanoma
[22] = test system: KM12 colon
[23] = test system: HCT-116 colon
[24] = test system: HOP-62 NSCLC
[25] = test system: SN12C renal
[26] = test system: CAKI-1 renal
[27] = test system: SK-MEL-28 melanoma
[28] = test system: IGROV1 ovarian
[29] = test system: SF-268 CNS
[30] = test system: CCRF-CEM leukemia
[31] = test system: 786-0 renal
[32] = test system: MDA-MB-435 melanoma
[33] = test system: MOLT-4 leukemia
[34] = test system: PC-3 prostate
[35] = test system: RXF 393 renal
[36] = test system: HOP-92 NSCLC
[37] = test system: ACHN renal
[38] = test system: OVCAR-4 ovarian
[39] = test system: BT-549 breast
[40] = test system: K-562 leukemia
[41] = test system: T-47D breast
[42] = test system: HL-60(TB) leukemia
[43] = test system: NCI-H322M lung
[44] = test system: MDA-MB-468 breast
[45] = test system: MCF7 breast
[46] = test system: A498 renal
[47] = test system: NCI-H460 NSCLC
[48] = test system: OVCAR-5 ovarian
[49] = test system: SNB-19 CNS
[50] = test system: LOX IMVI melanoma
[51] = test system: COLO 205 colon

Question: With `COc1ccccc1S(=O)(=O)Nc1ccc2c(c1)CN(C)C(=O)N2` as the molecule, how does the GI50 [1] read?
Answer: The GI50 was 20.5 nM.

Question: What about the TGI [1] of the same molecule?
Answer: The TGI was over 100000 nM.

Question: What about the GI50 [2] of the same molecule?
Answer: Its GI50 is 33.1 nM.

Question: What about the TGI [2] of the same molecule?
Answer: The TGI was over 100000 nM.

Question: And the GI50 [3]?
Answer: Its GI50 is under 10 nM.

Question: And the TGI [3]?
Answer: Its TGI is under 10 nM.

Question: And the GI50 [4]?
Answer: The GI50 was 16.3 nM.

Question: What about the TGI [4] of the same molecule?
Answer: The TGI was 53.7 nM.

Question: What about the GI50 [5] of the same molecule?
Answer: The GI50 was 20.6 nM.

Question: And the TGI [5]?
Answer: The TGI was over 100000 nM.

Question: What about the GI50 [6] of the same molecule?
Answer: The GI50 was under 10 nM.

Question: And the TGI [6]?
Answer: The TGI was 19.2 nM.

Question: And the GI50 [7]?
Answer: Its GI50 is under 10 nM.

Question: What about the TGI [7] of the same molecule?
Answer: The TGI was 7040 nM.

Question: And the GI50 [8]?
Answer: The GI50 was 12 nM.

Question: And the TGI [8]?
Answer: The TGI was 27.1 nM.

Question: What about the GI50 [9] of the same molecule?
Answer: Its GI50 is under 10 nM.

Question: And the TGI [9]?
Answer: Its TGI is under 10 nM.

Question: What about the GI50 [10] of the same molecule?
Answer: The GI50 was 19.5 nM.

Question: And the TGI [10]?
Answer: The TGI was 37.3 nM.

Question: What about the GI50 [11] of the same molecule?
Answer: The GI50 was 31.1 nM.

Question: What about the TGI [11] of the same molecule?
Answer: Its TGI is over 100000 nM.

Question: And the GI50 [12]?
Answer: The GI50 was 14.4 nM.

Question: And the TGI [12]?
Answer: Its TGI is 37.6 nM.

Question: And the GI50 [13]?
Answer: The GI50 was under 10 nM.

Question: And the TGI [13]?
Answer: The TGI was over 100000 nM.

Question: What about the GI50 [14] of the same molecule?
Answer: The GI50 was 18.1 nM.

Question: And the TGI [14]?
Answer: The TGI was 39.3 nM.

Question: And the GI50 [15]?
Answer: The GI50 was 32.4 nM.

Question: What about the TGI [15] of the same molecule?
Answer: The TGI was over 100000 nM.

Question: And the GI50 [16]?
Answer: The GI50 was 20.2 nM.

Question: What about the TGI [16] of the same molecule?
Answer: Its TGI is 58.1 nM.

Question: What about the GI50 [17] of the same molecule?
Answer: Its GI50 is 12 nM.

Question: What about the TGI [17] of the same molecule?
Answer: The TGI was 33.2 nM.

Question: What about the GI50 [18] of the same molecule?
Answer: Its GI50 is under 10 nM.

Question: What about the TGI [18] of the same molecule?
Answer: Its TGI is over 100000 nM.

Question: And the GI50 [19]?
Answer: Its GI50 is 12.6 nM.

Question: And the TGI [19]?
Answer: The TGI was 46.9 nM.

Question: And the GI50 [20]?
Answer: The GI50 was 26.7 nM.

Question: And the TGI [20]?
Answer: The TGI was 82.2 nM.

Question: And the GI50 [21]?
Answer: The GI50 was under 10 nM.

Question: And the TGI [21]?
Answer: Its TGI is 12.9 nM.

Question: What about the GI50 [22] of the same molecule?
Answer: The GI50 was 18.8 nM.

Question: What about the TGI [22] of the same molecule?
Answer: The TGI was 71.4 nM.

Question: What about the GI50 [23] of the same molecule?
Answer: Its GI50 is 14.5 nM.

Question: And the TGI [23]?
Answer: The TGI was 77.3 nM.

Question: What about the GI50 [24] of the same molecule?
Answer: The GI50 was 20.8 nM.

Question: What about the TGI [24] of the same molecule?
Answer: The TGI was over 100000 nM.

Question: What about the GI50 [25] of the same molecule?
Answer: The GI50 was 24.7 nM.

Question: What about the TGI [25] of the same molecule?
Answer: Its TGI is over 100000 nM.

Question: What about the GI50 [26] of the same molecule?
Answer: The GI50 was under 10 nM.

Question: And the TGI [26]?
Answer: Its TGI is over 100000 nM.

Question: And the GI50 [27]?
Answer: Its GI50 is under 10 nM.

Question: And the TGI [27]?
Answer: The TGI was over 100000 nM.

Question: What about the GI50 [28] of the same molecule?
Answer: The GI50 was 22.5 nM.

Question: And the TGI [28]?
Answer: The TGI was 73600 nM.

Question: And the GI50 [29]?
Answer: Its GI50 is 20.3 nM.

Question: What about the TGI [29] of the same molecule?
Answer: The TGI was 134 nM.

Question: What about the GI50 [30] of the same molecule?
Answer: The GI50 was under 10 nM.

Question: And the TGI [30]?
Answer: Its TGI is under 10 nM.

Question: What about the GI50 [31] of the same molecule?
Answer: The GI50 was 16.7 nM.

Question: And the TGI [31]?
Answer: The TGI was 15900 nM.

Question: What about the GI50 [32] of the same molecule?
Answer: Its GI50 is under 10 nM.

Question: And the TGI [32]?
Answer: Its TGI is under 10 nM.

Question: And the GI50 [33]?
Answer: The GI50 was under 10 nM.

Question: What about the TGI [33] of the same molecule?
Answer: The TGI was 19.5 nM.

Question: And the GI50 [34]?
Answer: Its GI50 is under 10 nM.

Question: And the TGI [34]?
Answer: The TGI was over 100000 nM.

Question: And the GI50 [35]?
Answer: The GI50 was under 10 nM.

Question: What about the TGI [35] of the same molecule?
Answer: The TGI was under 10 nM.

Question: And the GI50 [36]?
Answer: The GI50 was under 10 nM.

Question: What about the TGI [36] of the same molecule?
Answer: Its TGI is 66800 nM.

Question: And the GI50 [37]?
Answer: The GI50 was 15.3 nM.

Question: What about the TGI [37] of the same molecule?
Answer: Its TGI is over 100000 nM.

Question: And the GI50 [38]?
Answer: Its GI50 is 16.2 nM.

Question: What about the TGI [38] of the same molecule?
Answer: Its TGI is over 100000 nM.

Question: And the GI50 [39]?
Answer: Its GI50 is under 10 nM.

Question: What about the TGI [39] of the same molecule?
Answer: The TGI was 32.4 nM.

Question: What about the GI50 [40] of the same molecule?
Answer: Its GI50 is under 10 nM.

Question: What about the TGI [40] of the same molecule?
Answer: The TGI was 18 nM.

Question: What about the GI50 [41] of the same molecule?
Answer: The GI50 was 17200 nM.

Question: And the TGI [41]?
Answer: Its TGI is over 100000 nM.

Question: What about the GI50 [42] of the same molecule?
Answer: The GI50 was under 10 nM.

Question: And the TGI [42]?
Answer: The TGI was 13.1 nM.

Question: What about the GI50 [43] of the same molecule?
Answer: The GI50 was 18.8 nM.

Question: And the TGI [43]?
Answer: The TGI was over 100000 nM.

Question: And the GI50 [44]?
Answer: The GI50 was 17.1 nM.

Question: What about the TGI [44] of the same molecule?
Answer: The TGI was 34.7 nM.

Question: What about the GI50 [45] of the same molecule?
Answer: Its GI50 is 35.9 nM.

Question: And the TGI [45]?
Answer: The TGI was 12300 nM.

Question: What about the GI50 [46] of the same molecule?
Answer: Its GI50 is under 10 nM.

Question: And the TGI [46]?
Answer: The TGI was 60700 nM.

Question: What about the GI50 [47] of the same molecule?
Answer: Its GI50 is 21.3 nM.

Question: And the TGI [47]?
Answer: The TGI was 45.3 nM.

Question: What about the GI50 [48] of the same molecule?
Answer: The GI50 was 26 nM.

Question: And the TGI [48]?
Answer: The TGI was over 100000 nM.

Question: What about the GI50 [49] of the same molecule?
Answer: Its GI50 is 19.8 nM.

Question: And the TGI [49]?
Answer: The TGI was 20000 nM.

Question: And the GI50 [50]?
Answer: The GI50 was 21.3 nM.

Question: And the TGI [50]?
Answer: Its TGI is 87.1 nM.

Question: And the GI50 [51]?
Answer: Its GI50 is under 10 nM.

Question: And the TGI [51]?
Answer: The TGI was 62.6 nM.
